{
  "source": "patent US20020183383A1",
  "about": "“Pharmaceutical compositions” (priority 2001, published 2002)",
  "key": {"[1]": {"tested_on": "subjects with primary hypercholesterolemia", "experiment": "Multicenter, double-blind, placebo-controlled, parallel study of lipid (LDL-C, TC, HDL-C, TG) lowering efficacy of once-daily pravastatin 40-160 mg", "format": "in vivo, human", "settings": "for HDL-C % Δ, adjusted percent change from baseline (ANCOVA) / LDL-C (calculated) % Δ, adjusted percent change from baseline (ANCOVA) / TC % Δ, adjusted percent change from baseline (ANCOVA) / TG % Δ, adjusted percent change from baseline (ANCOVA) / increase in HDL-C / mean reduction in TC / mean reduction in TG: Week 6; for mean reduction in LDL-C: 6 weeks of treatment", "experimental": "A Multicenter, Double-Blind, Placebo-Controlled, Parallel Study to Determine the LDL-C Lowering Efficacy of Pravastatin Administered Once Daily Over the Dosage Range of 40 mg Through 160 mg.\n(§1) Objectives: The primary objective of this study was to evaluate the dose-related cholesterol (LDL-C) lowering efficacy of pravastatin 40 mg, 80 mg and 160 mg after 6 weeks of once-daily oral administration in subjects with primary hypercholesterolemia. Secondary objectives were: 1) to evaluate the dose-related changes in serum total cholesterol (TC), high-density lipoprotein cholesterol (HDL-C), and triglycerides (TG) concentrations after 6 weeks of once-daily oral administration of pravastatin 40 mg, 80 mg and 160 mg in subjects with primary hypercholesterolemia; 2) to estimate the dose-related changes in serum LDL-C, TC, HDL-C, and TG concentrations after 2 weeks and 4 weeks of once-daily oral administration of pravastatin 40 mg, 80 mg and 160 mg in subjects with primary hypercholesterolemia; and 3) to ascertain the safety and tolerability of the treatment regimens after 6 weeks of once-daily oral administration of pravastatin 40 mg, 80 mg and 160 mg in subjects with primary hypercholesterolemia.\nDuration of Treatment: 6 weeks\n(§2) Study Design and Methodology: This study was a multicenter, randomized, double-blind placebo-controlled, parallel design trial to determine the LDL-C lowering efficacy of pravastatin over a dose range of 40-160 mg in subjects with primary hypercholesterolemia. After at least 2 weeks of dietary stabilization and discontinuation of any previous lipid-lowering agents for a minimum of 4 weeks, subjects entered into a 4-week single-blind placebo lead-in period. At the end of the placebo lead-in period, subjects with mean serum LDL-C≧160 mg/dL and mean serum TG≦500 mg/dL were randomized (1:1:1:1) to one of four treatment groups: pravastatin 40 mg, pravastatin 80 mg, pravastatin 160 mg or placebo. Blinded treatment was administered once-daily at bedtime for 6 weeks.\nNumber of Subjects: 190 randomized; 189 received randomized study drug, 184 completed the study.\nDiagnosis and Main Criteria for Inclusion: Consenting men, or postmenopausal and surgically sterile women, aged 18 through 65 years were eligible to enroll in the study if they met the following criteria: 1) mean serum LDL-C≧160 mg/dL (the LDL-C concentration of the lower qualifying specimen were to be within 15% of the higher qualifying specimen) and 2) mean serum TG≦500 mg/dL obtained from two consecutive qualifying specimens.\nTest Product, dose, mode of administration: pravastatin, 40 mg tablets, oral\nPrimary Efficacy Outcome Measure:\nChange from baseline in calculated serum LDL-C at Week 6 of double-blind treatment.\nSecondary Efficacy Outcome Measures:\nChange from baseline in serum LDL-C at Weeks 2 and 4 of double blind treatment.\nChange from baseline in serum TC, HDL-C, and TG at Weeks 2,4, and 6 of double-blind treatment.\nAnalyses of covariance with terms for treatment and baseline.\nA contrast of the dose groups from the analysis of covariance model."}, "[2]": {"tested_on": "subjects with primary hypercholesterolemia", "experiment": "Safety and tolerability in the same 6-week clinical study (adverse events, laboratory analyses)", "format": "in vivo, human", "experimental": "as §1, §2\nMedical history, physical examinations, laboratory analyses, and clinical adverse events (AEs)."}, "[3]": {"settings": "pravastatin 40 mg once daily, Week 6, N=45"}, "[4]": {"settings": "pravastatin 80 mg once daily, Week 6, N=48"}, "[5]": {"settings": "pravastatin 160 mg once daily, Week 6, N=48"}, "[6]": {"settings": "pravastatin 40 mg once daily, 6 weeks, N=46"}, "[7]": {"settings": "pravastatin 80 mg once daily, 6 weeks, N=49"}, "[8]": {"settings": "pravastatin 160 mg once daily, 6 weeks, N=48"}},
  "data": [
    {"smiles": "CC[C@H](C)C(=O)O[C@H]1C[C@H](O)C=C2C=C[C@H](C)[C@H](CC[C@@H](O)C[C@@H](O)CC(=O)O)[C@H]21", "note": "[Pravastatin, Pravastatin sodium]", "values": [
      {"measurement": "absolute reduction in LDL cholesterol as the dose was doubled", "setting": "[1]; dose doubled from 40 mg to 80 mg, and again from 80 mg to 160 mg", "result": "greater than 6%"},
      {"measurement": "additional LDL-C lowering with every doubling of the dose", "setting": "[1]; doses of 40-160 mg once daily, 6 weeks", "result": 8, "unit": "%"},
      {"measurement": "LDL-C (calculated) Week 6 Mean", "setting": "[1]; pravastatin 40 mg once daily oral at bedtime, Week 6, N=45", "result": 139.0, "unit": "mg/dL"},
      {"measurement": "HDL-C % Δ, adjusted percent change from baseline (ANCOVA)", "setting": "[1]; pravastatin 40 mg once daily", "result": 11.4, "unit": "%"},
      {"measurement": "LDL-C (calculated) % Δ, adjusted percent change from baseline (ANCOVA)", "setting": "[1]; pravastatin 40 mg once daily", "result": "−28.6", "unit": "%"},
      {"measurement": "TC % Δ, adjusted percent change from baseline (ANCOVA)", "setting": "[1]; pravastatin 40 mg once daily", "result": "−20.0", "unit": "%"},
      {"measurement": "TG % Δ, adjusted percent change from baseline (ANCOVA)", "setting": "[1]; pravastatin 40 mg once daily", "result": "−15.8", "unit": "%"},
      {"measurement": "HDL-C Week 6 Mean", "setting": "[1]; [3]", "result": 52.8, "unit": "mg/dL"},
      {"measurement": "TC Week 6 Mean", "setting": "[1]; [3]", "result": 219.8, "unit": "mg/dL"},
      {"measurement": "TG Week 6 Mean", "setting": "[1]; [3]", "result": 140.9, "unit": "mg/dL"},
      {"measurement": "mean reduction in LDL-C", "setting": "[1]; pravastatin 40 mg", "result": 29, "unit": "%"},
      {"measurement": "increase in HDL-C", "setting": "[1]; pravastatin 40 mg", "result": 11.4, "unit": "%"},
      {"measurement": "mean reduction in TC", "setting": "[1]; pravastatin 40 mg", "result": 20, "unit": "%"},
      {"measurement": "mean reduction in TG", "setting": "[1]; pravastatin 40 mg", "result": 16, "unit": "%"},
      {"measurement": "LDL-C (calculated) Week 6 Mean", "setting": "[1]; pravastatin 80 mg once daily oral at bedtime, Week 6, N=48", "result": 124.7, "unit": "mg/dL"},
      {"measurement": "HDL-C % Δ, adjusted percent change from baseline (ANCOVA)", "setting": "[1]; pravastatin 80 mg once daily", "result": 8.4, "unit": "%"},
      {"measurement": "LDL-C (calculated) % Δ, adjusted percent change from baseline (ANCOVA)", "setting": "[1]; pravastatin 80 mg once daily", "result": "−36.7", "unit": "%"},
      {"measurement": "TC % Δ, adjusted percent change from baseline (ANCOVA)", "setting": "[1]; pravastatin 80 mg once daily", "result": "−26.3", "unit": "%"},
      {"measurement": "TG % Δ, adjusted percent change from baseline (ANCOVA)", "setting": "[1]; pravastatin 80 mg once daily", "result": "−14.2", "unit": "%"},
      {"measurement": "HDL-C Week 6 Mean", "setting": "[1]; [4]", "result": 45.0, "unit": "mg/dL"},
      {"measurement": "TC Week 6 Mean", "setting": "[1]; [4]", "result": 201.6, "unit": "mg/dL"},
      {"measurement": "TG Week 6 Mean", "setting": "[1]; [4]", "result": 158.8, "unit": "mg/dL"},
      {"measurement": "mean reduction in LDL-C", "setting": "[1]; pravastatin 80 mg", "result": 37, "unit": "%"},
      {"measurement": "increase in HDL-C", "setting": "[1]; pravastatin 80 mg", "result": 8.4, "unit": "%"},
      {"measurement": "mean reduction in TC", "setting": "[1]; pravastatin 80 mg", "result": 26, "unit": "%"},
      {"measurement": "mean reduction in TG", "setting": "[1]; pravastatin 80 mg", "result": 14, "unit": "%"},
      {"measurement": "LDL-C (calculated) Week 6 Mean", "setting": "[1]; pravastatin 160 mg once daily oral at bedtime, Week 6, N=47", "result": 108.4, "unit": "mg/dL"},
      {"measurement": "HDL-C % Δ, adjusted percent change from baseline (ANCOVA)", "setting": "[1]; pravastatin 160 mg once daily", "result": 9.6, "unit": "%"},
      {"measurement": "LDL-C (calculated) % Δ, adjusted percent change from baseline (ANCOVA)", "setting": "[1]; pravastatin 160 mg once daily", "result": "−45.2", "unit": "%"},
      {"measurement": "TC % Δ, adjusted percent change from baseline (ANCOVA)", "setting": "[1]; pravastatin 160 mg once daily", "result": "−34.2", "unit": "%"},
      {"measurement": "TG % Δ, adjusted percent change from baseline (ANCOVA)", "setting": "[1]; pravastatin 160 mg once daily", "result": "−26.9", "unit": "%"},
      {"measurement": "HDL-C Week 6 Mean", "setting": "[1]; [5]", "result": 46.4, "unit": "mg/dL"},
      {"measurement": "TC Week 6 Mean", "setting": "[1]; [5]", "result": 181.3, "unit": "mg/dL"},
      {"measurement": "TG Week 6 Mean", "setting": "[1]; [5]", "result": 132.0, "unit": "mg/dL"},
      {"measurement": "mean reduction in LDL-C", "setting": "[1]; pravastatin 160 mg", "result": 45, "unit": "%"},
      {"measurement": "increase in HDL-C", "setting": "[1]; pravastatin 160 mg", "result": 9.6, "unit": "%"},
      {"measurement": "mean reduction in TC", "setting": "[1]; pravastatin 160 mg", "result": 34, "unit": "%"},
      {"measurement": "mean reduction in TG", "setting": "[1]; pravastatin 160 mg", "result": 27, "unit": "%"},
      {"measurement": "subjects with CK elevation >4×ULN", "setting": "[2]; 40 mg pravastatin (one subject)", "result": 2.2, "unit": "%"},
      {"measurement": "subjects discontinued due to gastrointestinal events considered possibly related to study drug", "setting": "[2]; 160 mg pravastatin treatment group (two subjects)", "result": 1.4, "unit": "%"},
      {"measurement": "tolerability / safety in words", "setting": "[2]; 40, 80 and 160 mg once daily for 6 weeks", "result": "appears safe and well tolerated"},
      {"measurement": "deaths or serious adverse events in the study", "setting": "[2]; all treatment groups, 6 weeks", "result": "no deaths or serious adverse events"},
      {"measurement": "marked abnormalities (MAs) for ALT and AST", "setting": "[2]; all treatment groups, 6 weeks", "result": "No marked abnormalities"},
      {"measurement": "Number of randomized subjects with ADE (adverse drug experience), n (%)", "setting": "[2]; [6]", "result": "5 (10.9%)"},
      {"measurement": "Number of randomized subjects with AE (total), n (%)", "setting": "[2]; [6]", "result": "19 (43%)"},
      {"measurement": "Number of randomized subjects with Discontinuations, n (%)", "setting": "[2]; [6]", "result": 0},
      {"measurement": "Number of randomized subjects with SAE (serious adverse event)", "setting": "[2]; [6]", "result": 0},
      {"measurement": "Number of randomized subjects with ADE (adverse drug experience), n (%)", "setting": "[2]; [7]", "result": "14 (28.6%)"},
      {"measurement": "Number of randomized subjects with AE (total), n (%)", "setting": "[2]; [7]", "result": "24 (49.0%)"},
      {"measurement": "Number of randomized subjects with Discontinuations, n (%)", "setting": "[2]; [7]", "result": 0},
      {"measurement": "Number of randomized subjects with SAE (serious adverse event)", "setting": "[2]; [7]", "result": 0},
      {"measurement": "frequency of adverse events by body system", "setting": "[2]; pravastatin 160 mg dose", "result": "higher frequency of adverse events in the gastrointestinal and respiratory body systems"},
      {"measurement": "Number of randomized subjects with ADE (adverse drug experience), n (%)", "setting": "[2]; [8]", "result": "17 (35.4%)"},
      {"measurement": "Number of randomized subjects with AE (total), n (%)", "setting": "[2]; [8]", "result": "29 (60.4%)"},
      {"measurement": "Number of randomized subjects with Discontinuations, n (%)", "setting": "[2]; [8]", "result": "2 (1.4%)"},
      {"measurement": "Number of randomized subjects with SAE (serious adverse event)", "setting": "[2]; [8]", "result": 0}
    ]}
  ]
}
